The supplement of paper PMC12819154, “High-throughput peptide-centric local stability assay extends protein–ligand identification to membrane proteins, tissues and bacteria” (Nature Structural & Molecular Biology, 2025)

How the values were obtained:
Assay in all cases: pEC50 of peptide local stability change
UniProt P33940 = conditions: peptide sequence: EYYPQAK; direction: stabilized; replicate design: treated separately
Method: (§1)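 Dose-response HT-PELSA: desalted E. coli lysate treated separately per replicate with ATP (10 uM to 10 mM, 7 doses) for 30 min at 25 C, then a 4 min trypsin pulse at 22 C. Peptide ratio vs control was fitted with a 4-parameter log-logistic model (R2 > 0.9 in at least 3 replicates, CV of pEC50 <= 0.25); value is the mean pEC50 across replicates for stabilized or destabilized peptides.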

UniProt P75796 = conditions: peptide sequence: IPEAQTILSR; direction: stabilized; replicate design: treated separately
Method: as §1

UniProt P39359 = conditions: peptide sequence: EVADFLINK; direction: stabilized; replicate design: treated separately
Chain of UniProt P39359 (P39359 whole entry): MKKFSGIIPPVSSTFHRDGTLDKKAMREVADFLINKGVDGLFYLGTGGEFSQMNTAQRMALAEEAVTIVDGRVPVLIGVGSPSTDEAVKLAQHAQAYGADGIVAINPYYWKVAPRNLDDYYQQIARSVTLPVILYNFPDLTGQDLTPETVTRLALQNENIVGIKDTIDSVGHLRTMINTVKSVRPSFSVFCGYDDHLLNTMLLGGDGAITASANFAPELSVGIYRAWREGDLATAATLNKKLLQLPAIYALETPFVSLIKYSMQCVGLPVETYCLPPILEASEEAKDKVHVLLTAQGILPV
Method: as §1

UniProt P0A6H5 = conditions: peptide sequence: LANAPFIK; direction: stabilized; replicate design: treated separately
Method: as §1

UniProt P25741 = conditions: peptide sequence: GKDAFAEVK; direction: stabilized; replicate design: treated separately
Method: as §1

UniProt P77756 = conditions: peptide sequence: ALNHAVSLGMAK; direction: stabilized; replicate design: treated separately
Chain of UniProt P77756 (P77756 whole entry): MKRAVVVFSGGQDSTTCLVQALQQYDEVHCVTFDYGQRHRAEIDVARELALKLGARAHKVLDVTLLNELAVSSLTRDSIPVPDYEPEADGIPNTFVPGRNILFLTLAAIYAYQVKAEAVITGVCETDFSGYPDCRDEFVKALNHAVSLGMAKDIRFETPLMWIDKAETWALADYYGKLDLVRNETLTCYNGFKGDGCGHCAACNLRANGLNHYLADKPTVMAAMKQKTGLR
Method: as §1

UniProt P09980 = conditions: peptide sequence: DYAILYR; direction: stabilized; replicate design: treated separately
Method: as §1

UniProt P13458 = conditions: peptide sequence: LESTFAVK; direction: stabilized; replicate design: treated separately
Chain of UniProt P13458 (P13458 whole entry): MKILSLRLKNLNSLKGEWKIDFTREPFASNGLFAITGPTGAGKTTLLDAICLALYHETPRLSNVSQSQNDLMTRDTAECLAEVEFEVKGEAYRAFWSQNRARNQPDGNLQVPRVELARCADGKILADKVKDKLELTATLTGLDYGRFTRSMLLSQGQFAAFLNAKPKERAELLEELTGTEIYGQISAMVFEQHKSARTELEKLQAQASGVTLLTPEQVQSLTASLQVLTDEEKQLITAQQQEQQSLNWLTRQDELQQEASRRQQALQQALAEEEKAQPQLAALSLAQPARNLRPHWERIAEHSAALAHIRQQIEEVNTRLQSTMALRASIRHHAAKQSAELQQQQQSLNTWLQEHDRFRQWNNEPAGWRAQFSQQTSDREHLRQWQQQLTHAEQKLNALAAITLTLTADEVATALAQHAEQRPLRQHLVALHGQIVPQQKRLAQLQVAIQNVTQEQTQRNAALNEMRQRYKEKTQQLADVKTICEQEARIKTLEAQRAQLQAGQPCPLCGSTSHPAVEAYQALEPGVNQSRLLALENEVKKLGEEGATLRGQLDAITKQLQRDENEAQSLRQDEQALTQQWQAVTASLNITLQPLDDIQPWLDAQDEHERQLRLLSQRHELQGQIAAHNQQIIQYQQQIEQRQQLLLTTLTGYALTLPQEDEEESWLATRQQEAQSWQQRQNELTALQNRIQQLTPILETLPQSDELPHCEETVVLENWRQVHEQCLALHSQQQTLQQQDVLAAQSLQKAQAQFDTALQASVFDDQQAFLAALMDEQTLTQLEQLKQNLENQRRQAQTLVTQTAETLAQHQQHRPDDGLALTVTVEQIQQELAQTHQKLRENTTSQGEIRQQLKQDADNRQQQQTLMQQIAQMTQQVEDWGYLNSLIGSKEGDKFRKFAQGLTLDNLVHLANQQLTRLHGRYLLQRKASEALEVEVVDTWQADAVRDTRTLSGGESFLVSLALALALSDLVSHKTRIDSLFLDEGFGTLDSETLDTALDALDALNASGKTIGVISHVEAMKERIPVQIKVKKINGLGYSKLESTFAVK
Method: as §1

UniProt P14375 = conditions: peptide sequence: ELENAVER; direction: stabilized; replicate design: treated separately
Chain of UniProt P14375 (P14375 whole entry): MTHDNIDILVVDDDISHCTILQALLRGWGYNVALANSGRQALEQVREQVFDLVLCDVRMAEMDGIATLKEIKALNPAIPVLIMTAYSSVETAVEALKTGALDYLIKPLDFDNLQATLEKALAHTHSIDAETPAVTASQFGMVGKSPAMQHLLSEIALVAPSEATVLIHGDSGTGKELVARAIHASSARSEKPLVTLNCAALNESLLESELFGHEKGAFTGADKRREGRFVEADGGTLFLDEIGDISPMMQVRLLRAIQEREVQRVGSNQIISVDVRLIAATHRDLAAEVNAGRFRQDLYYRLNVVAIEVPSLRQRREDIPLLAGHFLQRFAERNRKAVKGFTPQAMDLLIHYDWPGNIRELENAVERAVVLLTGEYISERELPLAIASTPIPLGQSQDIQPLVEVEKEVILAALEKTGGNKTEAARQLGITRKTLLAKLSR
Method: as §1

UniProt P39383 = conditions: peptide sequence: QLVDFADK; direction: stabilized; replicate design: treated separately
Method: as §1

UniProt P24182 = conditions: peptide sequence: LMGDKVSAIAAMKK; direction: stabilized; replicate design: treated separately
Method: as §1

UniProt P37440 = conditions: peptide sequence: CTAVVADVR; direction: stabilized; replicate design: treated separately
Method: as §1

UniProt P76027 = conditions: peptide sequence: EILNLPEHELNKLR; direction: stabilized; replicate design: treated separately
Method: as §1

UniProt P13009 = conditions: peptide sequence: TPPVTLEAAR; direction: stabilized; replicate design: treated separately
Method: as §1

UniProt P25536 = conditions: peptide sequence: IVTGIEEQR; direction: stabilized; replicate design: treated separately
Method: as §1

UniProt P0ACL0 = conditions: peptide sequence: HVMLVVDHSK; direction: stabilized; replicate design: treated separately
Method: as §1

UniProt P76594 = conditions: peptide sequence: YLVIQGIK; direction: stabilized; replicate design: treated separately
Chain of UniProt P76594 (P76594 whole entry): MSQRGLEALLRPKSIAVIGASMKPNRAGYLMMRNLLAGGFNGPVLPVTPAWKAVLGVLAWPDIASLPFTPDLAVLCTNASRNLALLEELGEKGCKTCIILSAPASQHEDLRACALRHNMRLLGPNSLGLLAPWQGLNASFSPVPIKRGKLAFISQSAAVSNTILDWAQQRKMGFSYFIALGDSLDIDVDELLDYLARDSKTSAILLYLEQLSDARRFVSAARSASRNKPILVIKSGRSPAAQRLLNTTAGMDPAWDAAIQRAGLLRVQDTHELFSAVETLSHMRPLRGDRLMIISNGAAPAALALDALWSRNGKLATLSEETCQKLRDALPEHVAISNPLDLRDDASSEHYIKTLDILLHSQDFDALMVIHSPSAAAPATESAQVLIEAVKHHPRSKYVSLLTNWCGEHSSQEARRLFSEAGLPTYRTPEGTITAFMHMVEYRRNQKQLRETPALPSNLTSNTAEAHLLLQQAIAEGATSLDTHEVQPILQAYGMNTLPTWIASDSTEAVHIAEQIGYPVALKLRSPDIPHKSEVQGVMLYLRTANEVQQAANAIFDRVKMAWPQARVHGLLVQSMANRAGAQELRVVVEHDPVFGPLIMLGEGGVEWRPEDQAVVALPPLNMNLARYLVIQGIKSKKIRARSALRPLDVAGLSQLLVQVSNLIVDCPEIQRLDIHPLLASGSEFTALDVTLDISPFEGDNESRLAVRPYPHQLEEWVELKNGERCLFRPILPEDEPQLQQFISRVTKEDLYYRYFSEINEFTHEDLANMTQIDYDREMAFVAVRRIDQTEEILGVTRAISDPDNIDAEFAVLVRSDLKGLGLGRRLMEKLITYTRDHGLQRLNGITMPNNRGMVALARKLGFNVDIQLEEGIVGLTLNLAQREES
Method: as §1

UniProt P22188 = conditions: peptide sequence: LWCVFGCGGDRDK; direction: stabilized; replicate design: treated separately
Method: as §1

UniProt P37903 = conditions: peptide sequence: KFKLPTDR; direction: stabilized; replicate design: treated separately
Method: as §1

UniProt P0AFU4 = conditions: peptide sequence: LMTASWPGNVR; direction: stabilized; replicate design: treated separately
Method: as §1

UniProt P22106 = conditions: peptide sequence: QALEDSVK; direction: stabilized; replicate design: treated separately
Method: as §1

UniProt P0ACW4 = conditions: peptide sequence: GGISHCTAGGKFVCNDGSISASK; direction: stabilized; replicate design: treated separately
Chain of UniProt P0ACW4 (P0ACW4 whole entry): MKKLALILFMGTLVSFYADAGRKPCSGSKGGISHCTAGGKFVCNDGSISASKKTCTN
Method: as §1

UniProt P11454 = conditions: peptide sequence: ALPLPELK; direction: stabilized; replicate design: treated separately
Chain of UniProt P11454 (P11454 whole entry): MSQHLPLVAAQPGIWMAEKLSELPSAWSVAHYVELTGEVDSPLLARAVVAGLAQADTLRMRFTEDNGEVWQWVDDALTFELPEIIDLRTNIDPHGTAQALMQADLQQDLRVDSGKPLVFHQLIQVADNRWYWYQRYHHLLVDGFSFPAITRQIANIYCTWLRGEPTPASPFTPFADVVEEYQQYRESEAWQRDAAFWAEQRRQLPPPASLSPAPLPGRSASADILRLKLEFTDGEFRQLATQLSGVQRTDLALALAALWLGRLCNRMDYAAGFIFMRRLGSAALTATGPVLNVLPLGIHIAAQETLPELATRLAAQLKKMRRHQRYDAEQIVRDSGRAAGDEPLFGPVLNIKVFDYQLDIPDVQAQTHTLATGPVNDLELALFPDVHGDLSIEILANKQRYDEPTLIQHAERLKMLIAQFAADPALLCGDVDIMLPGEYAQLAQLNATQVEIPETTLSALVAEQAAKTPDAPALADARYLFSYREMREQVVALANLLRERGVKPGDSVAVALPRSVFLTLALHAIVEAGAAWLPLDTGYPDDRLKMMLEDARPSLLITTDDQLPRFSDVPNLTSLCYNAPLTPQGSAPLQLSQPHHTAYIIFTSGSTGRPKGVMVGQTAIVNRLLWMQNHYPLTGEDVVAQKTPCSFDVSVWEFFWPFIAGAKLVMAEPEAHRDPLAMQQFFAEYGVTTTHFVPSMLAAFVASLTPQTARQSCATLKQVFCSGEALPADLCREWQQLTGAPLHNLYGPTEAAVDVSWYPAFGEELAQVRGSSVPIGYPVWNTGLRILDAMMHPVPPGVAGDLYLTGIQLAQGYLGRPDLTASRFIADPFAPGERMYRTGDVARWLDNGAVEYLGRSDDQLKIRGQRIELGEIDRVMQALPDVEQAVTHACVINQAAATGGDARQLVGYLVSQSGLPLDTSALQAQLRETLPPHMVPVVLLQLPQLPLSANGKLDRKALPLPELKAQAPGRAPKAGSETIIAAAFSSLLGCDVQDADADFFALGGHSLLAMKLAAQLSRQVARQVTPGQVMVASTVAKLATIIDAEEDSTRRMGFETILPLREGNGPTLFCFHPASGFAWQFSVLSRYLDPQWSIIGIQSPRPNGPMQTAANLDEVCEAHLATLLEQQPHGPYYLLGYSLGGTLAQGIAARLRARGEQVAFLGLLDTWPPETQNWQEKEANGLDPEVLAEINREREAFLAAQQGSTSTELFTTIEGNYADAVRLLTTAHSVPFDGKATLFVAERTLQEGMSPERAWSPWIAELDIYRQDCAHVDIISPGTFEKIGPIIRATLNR
Method: as §1

UniProt P39410 = conditions: peptide sequence: HIAQEMPEK; direction: stabilized; replicate design: treated separately
Method: as §1

UniProt P75736 = conditions: peptide sequence: QQAAAIMR; direction: stabilized; replicate design: treated separately
Chain of UniProt P75736 (P75736 whole entry): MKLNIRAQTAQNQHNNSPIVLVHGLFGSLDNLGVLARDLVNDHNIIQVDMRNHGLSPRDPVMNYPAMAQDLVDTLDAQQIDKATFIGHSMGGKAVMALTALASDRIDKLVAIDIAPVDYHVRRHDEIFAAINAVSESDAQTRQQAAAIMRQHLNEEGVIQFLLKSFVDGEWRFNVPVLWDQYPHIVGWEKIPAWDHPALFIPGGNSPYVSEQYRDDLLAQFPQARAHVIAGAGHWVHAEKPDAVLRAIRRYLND
Method: as §1

UniProt P23830 = conditions: peptide sequence: EALGVLHFK; direction: stabilized; replicate design: treated separately
Chain of UniProt P23830 (P23830 whole entry): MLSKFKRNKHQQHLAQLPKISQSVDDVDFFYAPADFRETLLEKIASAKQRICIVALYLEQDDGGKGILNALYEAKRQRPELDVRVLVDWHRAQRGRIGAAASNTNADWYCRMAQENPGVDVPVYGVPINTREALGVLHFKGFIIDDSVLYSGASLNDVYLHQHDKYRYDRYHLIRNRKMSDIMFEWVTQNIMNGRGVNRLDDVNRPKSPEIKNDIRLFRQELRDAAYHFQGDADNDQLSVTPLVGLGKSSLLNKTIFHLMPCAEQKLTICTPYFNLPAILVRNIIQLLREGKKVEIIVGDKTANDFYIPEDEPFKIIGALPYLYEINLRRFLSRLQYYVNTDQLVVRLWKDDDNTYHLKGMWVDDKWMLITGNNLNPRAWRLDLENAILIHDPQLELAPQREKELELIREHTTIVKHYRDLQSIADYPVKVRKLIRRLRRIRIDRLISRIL
Method: as §1

UniProt P07109 = conditions: peptide sequence: HVSTHVIFLHQGK; direction: stabilized; replicate design: treated separately
Method: as §1

UniProt P08200 = conditions: peptide sequence: VAIKGPLTTPVGGGIR; direction: stabilized; replicate design: treated separately
Method: as §1

UniProt P0AA41 = conditions: peptide sequence: EDKGPQPAVTHYR; direction: stabilized; replicate design: treated separately
Method: as §1

UniProt P0AAB8 = conditions: peptide sequence: EQCDLLVCGHHHSFINR; direction: stabilized; replicate design: treated separately
Method: as §1

UniProt P37760 = conditions: peptide sequence: TGQVGWELQR; direction: stabilized; replicate design: treated separately
Method: as §1

Nc1ncnc2c1ncn2[C@@H]1O[C@H](COP(=O)(O)OP(=O)(O)OP(=O)(O)O)[C@@H](O)[C@H]1O [adenosine 5'-triphosphate]
Conditions | pEC50 of peptide local stability change
UniProt P0A6H5 | 3.26
UniProt P0AA41 | 2.34
UniProt P0AAB8 | 3.82
UniProt P0ACL0 | 4.44
UniProt P0ACW4 | 2.19
UniProt P0AFU4 | 3.39
UniProt P07109 | 3.88
UniProt P08200 | 2.33
UniProt P09980 | 4.14
UniProt P11454 | 3.15
UniProt P13009 | 2.53
UniProt P13458 | 2.9
UniProt P14375 | 3.65
UniProt P22106 | 2.42
UniProt P22188 | 3.89
UniProt P23830 | 2.53
UniProt P24182 | 3.89
UniProt P25536 | 3.52
UniProt P25741 | 3.2
UniProt P33940 | 3.09
UniProt P37440 | 2.72
UniProt P37760 | 3.12
UniProt P37903 | 3.72
UniProt P39359 | 3.49
UniProt P39383 | 3.31
UniProt P39410 | 3.92
UniProt P75736 | 2.02
UniProt P75796 | 3.2
UniProt P76027 | 2.71
UniProt P76594 | 2.33
UniProt P77756 | 3.62
